# According to US11357779B2 (G1 Therapeutics, Inc., priority 2018, dated 2022):
# Read-outs that look alike come from different tables or passages of the source.
# Assay: Plasma concentration versus time of Compound I and metabolite Compound III in patients dosed QD or BID with Form B of Compound II plus fulvestrant
# Assay type: in vivo, human
# Conditions: human, plasma, oral, read-out: Compound I Concentration
# From the text: Patients were enrolled into 1 of 2 parallel, independently operating, dose-escalation dosing cohorts with Form B of Compound II administered continuously either once daily (QD) or twice daily (BID) with food with fixed-dose fulvestrant (intramuscularly every 14 days for the first three injections and then every 28 days). Pre- or perimenopausal patients also received goserelin for the duration of study treatment. A […] agonist was started at least 28 days before the first dose of Form B, and those patients who were taking another LHRH agonist were switched to goserelin on Day 1. Patients were split into […] cohorts providing once a day (QD) dosing of 200 mg, 300 mg, 400 mg, 500 mg, or 650 mg of Form B, or twice a day (BID) dosing of 100 mg, 150 mg, or 200 mg of Form B. The second dose in BID cohorts was not administered in the evening until at least 12 hours after the initial morning dose of Form B. The dosing cohorts for Form B of Compound II are provided in Table 1.
# Blood samples were collected at the following time points relative to the morning dose of Form B at Day 1 and at Day 29: pre-dose (0 hour) and 1, 2, 3, 4, 6, 8, 10, 12 (prior to the evening dose in the BID cohorts), and 24 (prior to the next day's morning dose) hours after dosing. A 5-minute time window was allowed for samples collected between the predose and 3 hours after Form B dosing. A 15-minute window was allowed for samples collected between 4 to 12 hours after Form B dosing. A 1-hour window was allowed for the sample collected 24 hours after Form B dosing. Blood samples for Compound I PK trough levels were collected pre-dose at Day 8, Day 15, and Day 22 prior to the morning administration of Compound I. Plasma concentrations of Compound I and its metabolite, Compound III, were measured using validated methods.
# Analysis of plasma concentration versus time data for calculation of standard pharmacokinetic (PK) parameters following oral administration was conducted using Phoenix WinNonlin version 6.3 using actual blood sampling times.
compound,measurement,setting,value
"CC(C)N1CCN(c2ccc(Nc3ncc4cc5n(c4n3)C3(CCCCC3)CNC5=O)nc2)CC1 [Compound I, 2′-((5-(4-isopropylpiperazin-1-yl)pyridin-2-yl)amino)-7′,8′-dihydro-6′H-spiro[cyclohexane-1,9′-pyrazino[1′,2′:1,5]pyrrolo[2,3-d]pyrimidin]-6′-one]",concentration at 1 h,"300 mg, 300 mg QD of Form B, Day 29, 1.0 h, Median",15.4 ng/mL
same,concentration at 2 h,"300 mg, 300 mg QD of Form B, Day 29, 2.0 h, Mean",22.6 ng/mL
same,concentration at 2 h,"300 mg, 300 mg QD of Form B, Day 29, 2.0 h, Median",19.5 ng/mL
same,concentration at 3 h,"300 mg, 300 mg QD of Form B, Day 29, 3.0 h, Mean",31 ng/mL
same,concentration at 3 h,"300 mg, 300 mg QD of Form B, Day 29, 3.0 h, Median",26.3 ng/mL
same,concentration at 4 h,"300 mg, 300 mg QD of Form B, Day 29, 4.0 h, Mean",44.9 ng/mL
same,concentration at 4 h,"300 mg, 300 mg QD of Form B, Day 29, 4.0 h, Median",34.2 ng/mL
same,concentration at 6 h,"300 mg, 300 mg QD of Form B, Day 29, 6.0 h, Mean",35.9 ng/mL
same,concentration at 6 h,"300 mg, 300 mg QD of Form B, Day 29, 6.0 h, Median",39.2 ng/mL
same,concentration at 8 h,"300 mg, 300 mg QD of Form B, Day 29, 8.0 h, Mean",31.5 ng/mL
same,concentration at 8 h,"300 mg, 300 mg QD of Form B, Day 29, 8.0 h, Median",33.3 ng/mL
same,concentration at 10 h,"300 mg, 300 mg QD of Form B, Day 29, 10.0 h, Mean",25.6 ng/mL
same,concentration at 10 h,"300 mg, 300 mg QD of Form B, Day 29, 10.0 h, Median",18.9 ng/mL
same,concentration at 12 h,"300 mg, 300 mg QD of Form B, Day 29, 12.0 h, Mean",26.4 ng/mL
same,concentration at 12 h,"300 mg, 300 mg QD of Form B, Day 29, 12.0 h, Median",20.5 ng/mL
same,concentration at 24 h,"300 mg, 300 mg QD of Form B, Day 29, […], Mean",14.4 ng/mL
same,concentration at 24 h,"300 mg, 300 mg QD of Form B, Day 29, […], Median",10.9 ng/mL
same,concentration at 0 h,"400 mg, 400 mg QD of Form B, Day 1, 0.0 h, Mean",0 ng/mL
same,concentration at 0 h,"400 mg, 400 mg QD of Form B, Day 1, 0.0 h, Median",0 ng/mL
same,concentration at 1 h,"400 mg, 400 mg QD of Form B, Day 1, 1.0 h, Mean",5.32 ng/mL
same,concentration at 1 h,"400 mg, 400 mg QD of Form B, Day 1, 1.0 h, Median",2.26 ng/mL
same,concentration at 2 h,"400 mg, 400 mg QD of Form B, Day 1, 2.0 h, Mean",5.67 ng/mL
same,concentration at 2 h,"400 mg, 400 mg QD of Form B, Day 1, 2.0 h, Median",4.83 ng/mL
same,concentration at 3 h,"400 mg, 400 mg QD of Form B, Day 1, 3.0 h, Mean",9.21 ng/mL
same,concentration at 3 h,"400 mg, 400 mg QD of Form B, Day 1, 3.0 h, Median",9.38 ng/mL
same,concentration at 4 h,"400 mg, 400 mg QD of Form B, Day 1, 4.0 h, Mean",14 ng/mL
same,concentration at 4 h,"400 mg, 400 mg QD of Form B, Day 1, 4.0 h, Median",13.1 ng/mL
same,concentration at 6 h,"400 mg, 400 mg QD of Form B, Day 1, 6.0 h, Mean",20.1 ng/mL
same,concentration at 6 h,"400 mg, 400 mg QD of Form B, Day 1, 6.0 h, Median",21.6 ng/mL
same,concentration at 8 h,"400 mg, 400 mg QD of Form B, Day 1, 8.0 h, Mean",15.5 ng/mL
same,concentration at 8 h,"400 mg, 400 mg QD of Form B, Day 1, 8.0 h, Median",16 ng/mL
same,concentration at 10 h,"400 mg, 400 mg QD of Form B, Day 1, 10.0 h, Mean",10.6 ng/mL
same,concentration at 10 h,"400 mg, 400 mg QD of Form B, Day 1, 10.0 h, Median",9.56 ng/mL
same,concentration at 12 h,"400 mg, 400 mg QD of Form B, Day 1, 12.0 h, Mean",7.69 ng/mL
same,concentration at 12 h,"400 mg, 400 mg QD of Form B, Day 1, 12.0 h, Median",8.13 ng/mL
same,concentration at 24 h,"400 mg, 400 mg QD of Form B, Day 1, […], Mean",3.27 ng/mL
same,concentration at 24 h,"400 mg, 400 mg QD of Form B, Day 1, […], Median",3.31 ng/mL
same,concentration at 0 h,"400 mg, 400 mg QD of Form B, Day 29, 0.0 h, Mean",6.8 ng/mL
same,concentration at 0 h,"400 mg, 400 mg QD of Form B, Day 29, 0.0 h, Median",7.52 ng/mL
same,concentration at 1 h,"400 mg, 400 mg QD of Form B, Day 29, 1.0 h, Mean",8.07 ng/mL
same,concentration at 1 h,"400 mg, 400 mg QD of Form B, Day 29, 1.0 h, Median",9.88 ng/mL
same,concentration at 2 h,"400 mg, 400 mg QD of Form B, Day 29, 2.0 h, Mean",11.1 ng/mL
same,concentration at 2 h,"400 mg, 400 mg QD of Form B, Day 29, 2.0 h, Median",13.4 ng/mL
same,concentration at 3 h,"400 mg, 400 mg QD of Form B, Day 29, 3.0 h, Mean",14.2 ng/mL
same,concentration at 3 h,"400 mg, 400 mg QD of Form B, Day 29, 3.0 h, Median",17.2 ng/mL
same,concentration at 4 h,"400 mg, 400 mg QD of Form B, Day 29, 4.0 h, Mean",17 ng/mL
same,concentration at 4 h,"400 mg, 400 mg QD of Form B, Day 29, 4.0 h, Median",21.2 ng/mL
same,concentration at 6 h,"400 mg, 400 mg QD of Form B, Day 29, 6.0 h, Mean",18.9 ng/mL
same,concentration at 6 h,"400 mg, 400 mg QD of Form B, Day 29, 6.0 h, Median",23.2 ng/mL
same,concentration at 8 h,"400 mg, 400 mg QD of Form B, Day 29, 8.0 h, Mean",17 ng/mL
same,concentration at 8 h,"400 mg, 400 mg QD of Form B, Day 29, 8.0 h, Median",20.5 ng/mL
same,concentration at 10 h,"400 mg, 400 mg QD of Form B, Day 29, 10.0 h, Mean",14.2 ng/mL
same,concentration at 10 h,"400 mg, 400 mg QD of Form B, Day 29, 10.0 h, Median",17.1 ng/mL
same,concentration at 12 h,"400 mg, 400 mg QD of Form B, Day 29, 12.0 h, Mean",11.8 ng/mL
same,concentration at 12 h,"400 mg, 400 mg QD of Form B, Day 29, 12.0 h, Median",13.5 ng/mL
same,concentration at 24 h,"400 mg, 400 mg QD of Form B, Day 29, […], Mean",6.26 ng/mL
same,concentration at 24 h,"400 mg, 400 mg QD of Form B, Day 29, […], Median",7.04 ng/mL
same,concentration at 0 h,"500 mg, 500 mg QD of Form B, Day 1, 0.0 h, Mean",0 ng/mL
